Experimental data: patent publication US9302993B2, “8-hydroxy quinoline derivatives” (PRANA BIOTECHNOLOGY LIMITED, priority 2002, dated 2016)
“And” between values parts separate entries of the source, which are not always exact repeats. Equal values may be shown once. Read-outs that look alike come from different tables or passages of the source.

Tests used:
[1] = Blood brain barrier penetration, brain perfusion (Assay 14); type: in vivo; conditions: rat brain perfusion, 50 μM, 1.5 minutes
Procedure: Assay 14. Blood Brain Barrier Penetration
A trace amount of ^14C-sucrose was added to each stock infusion solution (approx 0.01 μCi/mL) to act as Blood-Brain Barrier (BBB)-impermeable marker in order to assess the integrity of the BBB during each perfusion and to estimate the volume of the residual vascular space (RVS) in samples of brain tissue (ie: the volume of fluid remaining inside the lumen of blood vessels at the end of each perfusion).
The right common carotid artery was surgically exposed and cannulated for perfusion of the cerebral circulation. The right external carotid artery (which supplies tissues outside the skull) was then ligated distal to its bifurcation from the right common carotid artery so that all of the infusion solution would pass into the brain via the remaining right internal carotid artery. The heart was then exposed and transected immediately prior to the commencement of the infusion. […] The infusion cannula initially contained a 0.5 mL pre-wash of heparinised PBS (10 IU/ml) that acts to flush blood vessels and to prevent blood from clotting and blocking small vessels.
After 1.5 minutes, the infusion pump automatically stopped, the cannula was withdrawn from the carotid artery and a sample of the infusion solution (1-1.5 mL) was then collected from the tip of the infusion cannula. The brain was then dissected free and divided into 3 parts; the right hemisphere together with the right midbrain, the left hemisphere together with the left midbrain and the hindbrain (cerebellum, pons and brainstem). Only the right part of the brain was used for subsequent measurements because perfusion via the right internal carotid artery preferentially supplies the right hemisphere and right midbrain (the left hemisphere and hindbrain receive a variable collateral perfusion). The brain tissue samples from each animal were frozen at −30° C., homogenized and weighed aliquots analysed by LC-MS to give total brain concentration. The analysis was carried out using the Micromass Triple Quad instrument. The mobile phase consisted of an acetonitrile/water gradient (containing 0.05% Formic acid) and the column was a Phenomenex Luna CN.
Small aliquots from each brain tissue sample and the corresponding infusion solution were analysed by liquid scintillation counting to determine the level of ^14C-sucrose. The residual vascular space (RVS) in each brain tissue sample was calculated by dividing the measured concentration of sucrose in brain tissue (dpm/mg) by its concentration in the corresponding infusion solution (dpm/μL). This is the volume of fluid that remains inside blood vessels at the end of each perfusion. […]
A total of 5-6 brain perfusion experiments were performed for each of the test compounds and mean brain uptake ratios were calculated.

[2] = Pharmacokinetic profile, IV and oral (Assay 16); type: in vivo; conditions: rat; for BA (%): oral, calculated using the truncated AUC; for clearance: read-out: Cltotal (mL/min/Kg), total plasma clearance
Procedure: Assay 16. Pharmacokinetic Profile
• Intravenous infusion of PBT-1033; 2 mg/Kg (1 mL of a 0.5 mg/mL solution in 7.5% DMSO with 0.1 m Captisol in Citrate Buffer adjusted to pH 3.0) was administered over 5 minutes to 2 rats and arterial blood was sampled up to 24 hours. • Oral administration of PBT-1033; 30 mg/Kg (as a suspension in CMC-SSV*) via administered via oral gavage to 2 rats and arterial blood was sampled up to 26 hours. * Standard Suspending Vehicle—0.5% w/v Na-Carboxymethyl Cellulose (CMC), 5% v/v benzyl alcohol, 4% v/v Tween 80 in 0.9% NaCl. • Plasma concentrations of PBT-1033 were determined by LCMS (LOQ 3.7 nM). For rat 020710-D, an overlapping peak was present for PBT-1033.
[formula] [formula] [formula] Calculations: • CLtotal=total plasma clearance after IV administration • Vdβ=volume of distribution during the elimination phase after IV administration • BA=oral bioavailability • AUCIV=area under the plasma concentration versus time profile from time zero to infinity after IV administration • AUCoral=area under the plasma concentration versus time profile from time zero to infinity after oral administration • β=terminal elimination rate constant after IV administration • The results are shown in FIG. 4(a). (b) PBT-1038 • Intravenous infusion of PBT-1038; (0.5 mg/Kg in 7.5% DMSO in Citrate Buffer pH 3.0) was administered over 5 minutes to 2 rats and arterial blood was sampled up to 24 hours. • Oral administration of PBT-1038; (30 mg/Kg as a 0.05% CMC suspension) via administered via oral gavage to 2 rats and arterial blood was sampled up to 24 hours. • Plasma concentrations of PBT-1038 were determined by MS (LOQ 3 nM)
(c) PBT-1050 • Intravenous infusion of PBT-1050; (2 mg/Kg in 7.5% DMSO in Citrate Buffer pH 3.0) was administered over 5 minutes to 2 rats and arterial blood was sampled up to 24 hours. • Oral administration of PBT-1050; (30 mg/Kg as a 0.05% CMC suspension) was administered via oral gavage to 2 rats and arterial blood was sampled up to 24 hours. • Plasma concentrations of PBT-1050 were determined by MS (LOQ 3 nM)
(d) PBT-1051 • Intravenous infusion of PBT-1051; 2 mg/Kg (1 mL of a 0.6 mg/mL solution in 7.5% DMSO in Citrate Buffer pH 3.0) was administered over 5 minutes to 2 rats and arterial blood was sampled up to 24 hours. • Oral administration of PBT-1051; 30 mg/Kg (as a suspension in CMC-SSV*) was administered via oral gavage to 2 rats and arterial blood was sampled up to 24 hours. * Standard Suspending Vehicle—0.5% w/v Na-Carboxymethyl Cellulose (CMC), 5% v/v benzyl alcohol, 4% v/v Tween 80 in 0.9% NaCl. • Plasma concentrations of PBT-1051 were determined by LCMS (LOQ 3.7 nM)

[3] = test system: Aβ in extract of tissue from post mortem human AD brain; assay: Human brain amyloid solubilisation assay (Assay 9, BAS); type: biochemical; conditions: solubilising plaques relative to PBS
Outline: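 Plaque-bearing post mortem AD cortex homogenised in ice-cold PBS pH 7.4 and spun 100,000×g, 30 min to separate PBS-soluble supernatant from insoluble pellet. Aβ in each fraction resolved on Tris-Tricine 10-20% gels, immunoblotted with W02 antibody and ECL, quantified by densitometry against synthetic Aβ40 standards (0.5, 1, 2 ng).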

[4] = test system: APP2576 transgenic mouse; assay: Effect of administration of test compounds on Aβ deposits in transgenic animals (Assay 11); type: in vivo; design: concentration or dose not given beside the values; conditions: transgenic mouse brains; for Insoluble fraction. % change compared with control.: insoluble Aβ; for Soluble fraction. % change compared with control.: soluble Aβ
[5] = IV, individual rats, listed as PBT 1033, hydrochloride
[6] = PO 30 mg/Kg, individual rats, listed as PBT 1033, hydrochloride, 30 mg/kg
[7] = plasma, po, 30 mg/kg, PO 30 mg/Kg, Mean ± SD
[8] = plasma, po, 30 mg/kg, PO 30 mg/Kg, Mean ± SD, read-out: Tmax (converted)
[9] = plasma, po, 30 mg/kg, PO 30 mg/Kg, individual rats
[10] = plasma, po, 30 mg/kg, PO 30 mg/Kg, individual rats, read-out: Tmax (converted)
[11] = PO 30 mg/Kg, individual rats, listed as PBT 1050, 30 mg/kg
[12] = IV, individual rats, listed as PBT 1051, hydrochloride
[13] = PO 30 mg/Kg, individual rats, listed as PBT 1051, hydrochloride, 30 mg/kg

SMILES | Uptake Ratio [1] | VdB ([2]; IV, Mean ± SD) | BA (%) ([2]; Mean ± SD) | Cmax ([2]; plasma, iv, 2 mg/kg, Mean ± SD) | Cmax [2, 7] | Tmax [2, 8] | Cmax [2, 9] | Tmax [2, 10] | BAS Score [3] | Insoluble fraction. % change compared with control. [4] | Soluble fraction. % change compared with control. [4] | Cmax ([2]; plasma, iv, Mean ± SD) | further results
CN(C)Cc1ccc2c(Cl)cc(Cl)c(O)c2n1.Cl [compound 1033, 5,7-Dichloro-2-dimethylaminomethyl-quinolin-8-ol hydrochloride] | >50% | 9.03 ± 3.07 L/kg | 25.25 ± 0.29% | 1.59 ± 1.26 µM | 1.69 ± 0.47 µM | 52.5 min | 2.02 µM | 45 min | + | −29% | −37% |  | Cltotal (mL/min/Kg), total plasma clearance [2, 5]: 145.69 mL/min/kg; Cmax [2, 5]: 0.7 µM and 2.48 µM; Tmax [2, 5]: 20 min and 5 min; VdB [2, 5]: 6.86 L/kg and 11.20 L/kg; t1/2 [2, 5]: 53.29 min; Cmax [2, 6]: 1.36 µM; Tmax [2, 6]: 60 min; BA (%) ([2]; individual rats, listed as PBT 1033, hydrochloride): 25.45% and 25.04%; clearance ([2]; plasma, iv, 2 mg/kg, IV, Mean ± SD): 118 ± 38.7 mL/min/kg; Tmax ([2]; plasma, iv, 2 mg/kg, IV, Mean ± SD, read-out: Tmax (converted)): 12.5 min; clearance ([2]; plasma, iv, 2 mg/kg, IV, individual rats): 91 mL/min/kg; half-life ([2]; plasma, iv, 2 mg/kg, Mean ± SD): 52.8 ± 0.73 min; half-life ([2]; plasma, iv, 2 mg/kg, individual rats): 52.2 min
O=C(NCCc1c[nH]cn1)c1ccc2c(Cl)cc(Cl)c(O)c2n1 [compound 1038, 5,7-Dichloro-8-hydroxyquinoline-2-carboxylic acid [2-(1H-imidazol-4-yl)-ethyl]-amide] | >50% |  |  |  | 63.1 ± 7.57 µM | 45 min | 57.8 µM | 45 min | + | −37% | negligible | 5.45 ± 3.7 µM | Cmax ([2]; IV, individual rats, listed as PBT 1038): 8.06 µM and 2.84 µM; Tmax ([2]; PO 30 mg/Kg, individual rats): 45 min; Cmax ([2]; PO 30 mg/Kg, individual rats, listed as PBT 1038, 30 mg/kg): 68.5 µM
Cn1cnc(CCNC(=O)c2ccc3c(Cl)cc(Cl)c(O)c3n2)c1 [compound 1050, 5,7-dichloro-8-hydroxyquinoline-2-carboxylic acid [2-(1-methyl-1H-imidazol-4-yl)-ethyl]-amide] | >50% |  |  | 25.4 ± 12.1 µM | 34 ± 38.2 µM | 82.5 min |  |  |  |  |  |  | Cmax ([2]; IV, individual rats, listed as PBT 1050): 33.9 µM and 16.9 µM; Cmax [2, 11]: 61 µM and 7.03 µM; Tmax [2, 11]: 45 min and 120 min
CCNCc1ccc2c(Cl)cc(Cl)c(O)c2n1.Cl [compound 1051, 5,7-dichloro-2-ethylaminomethyl-quinolin-8-ol hydrochloride] | >50% | 9.64 ± 0.77 L/kg | 27.75 ± 14.43% |  | 2.34 ± 1.18 µM | 45 min |  | 60 min | + | −21% | negligible | 2.99 ± 0.05 µM | Cltotal (mL/min/Kg), total plasma clearance [2, 12]: 135.58 mL/min/kg; Cmax [2, 12]: 3.03 µM; VdB [2, 12]: 10.19 L/kg and 9.10 L/kg; t1/2 [2, 12]: 46.52 min; Cmax [2, 13]: 3.18 µM and 1.5 µM; Tmax [2, 13]: 30 min; t1/2 [2, 13]: 365.72 min; BA (%) ([2]; individual rats, listed as PBT 1051, hydrochloride): 37.96% and 17.55%; clearance ([2]; plasma, iv, 2 mg/Kg, IV, Mean ± SD): 144 ± 12.5 mL/min/kg; clearance ([2]; plasma, iv, 2 mg/Kg, IV, individual rats): 153 mL/min/kg; half-life ([2]; plasma, iv, 2 mg/Kg, Mean ± SD): 46.3 ± 0.32 min; half-life ([2]; plasma, iv, 2 mg/Kg, individual rats): 46.1 min; Cmax ([2]; plasma, iv, individual rats): 2.96 µM; half-life [2, 7]: 283 ± 117 min; half-life [2, 9]: 200 min
